Experimental data: publication PMC8528861, “Structural and functional analysis of target recognition by the lymphocyte adaptor protein LNK” (Nature Communications, 2021)

Columns and labels:
Assay in all cases: Thermostability assay
Details in all cases: for delta Tm / Tm, plus phosphotyrosine: 10 mM phosphotyrosine; for delta Tm: relative to apo Tm; for Tm, plus phosphotyrosine: protein 30 μM in PBS; for Tm: protein 100 μM, peptide five-fold molar excess, phenyl phosphate 8 mM
V374M LNK SH2 domain = type: binding, mouse
Description: (§1) Using mouse SH2 domain equivalents of these variants we investigated whether the incorporation of these mutations affected protein stability by measuring their melting point (Tm).
(§2) For peptide and phenyl phosphate experiments, proteins were desalted into 100 mM NaCl, 20 mM Tris (pH 8.0), 2 mM TCEP buffer and diluted to 100 μM. Where peptides were used, a five-fold molar excess of peptide was added to each sample, in phenyl phosphate conditions concentration was 8 mM. For experiments were phosphotyrosine, proteins were diluted to 30 μM in PBS and in phosphate conditions, concentration was 10 mM. Ten mcroliter of each sample was transferred into a capillary and measured from 35 to 95 °C using a Tycho N6T (Nanotemper). Data were analyzed in Prism.

R387C LNK SH2 domain = target: T1, R387C LNK SH2 domain (Mus musculus, UniProt O09039, R387C); type: binding
T1 construct: DNA encoding the mouse LNK SH2 domain (residues 324–446) and an N-terminal NusA; NusA (N, cleaved yes); made in house; host or cells: E. coli
T1 sequence (O09039 324-446 R387C): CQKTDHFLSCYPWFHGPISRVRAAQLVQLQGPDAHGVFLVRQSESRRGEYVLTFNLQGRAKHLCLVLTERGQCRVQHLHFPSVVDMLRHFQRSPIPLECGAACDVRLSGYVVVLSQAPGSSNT
Description: as §1, §2

R387H LNK SH2 domain = target: T2, R387H LNK SH2 domain (Mus musculus, UniProt O09039, R387H); type: binding
T2 construct: DNA encoding the mouse LNK SH2 domain (residues 324–446) and an N-terminal NusA; NusA (N, cleaved yes); made in house; host or cells: E. coli
T2 sequence (O09039 324-446 R387H): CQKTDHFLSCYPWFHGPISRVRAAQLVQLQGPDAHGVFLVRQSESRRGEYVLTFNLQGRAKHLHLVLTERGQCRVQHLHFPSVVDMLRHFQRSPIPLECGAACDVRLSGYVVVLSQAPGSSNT
Description: as §1, §2

WT LNK SH2 domain = target: T3, WT LNK SH2 domain (Mus musculus, UniProt O09039); type: binding
T3 construct: DNA encoding the mouse LNK SH2 domain (residues 324–446) and an N-terminal NusA; NusA (N, cleaved yes); made in house; host or cells: E. coli (tuner (DE3), BL21(DE3) or C43)
T3 sequence (O09039 324-446): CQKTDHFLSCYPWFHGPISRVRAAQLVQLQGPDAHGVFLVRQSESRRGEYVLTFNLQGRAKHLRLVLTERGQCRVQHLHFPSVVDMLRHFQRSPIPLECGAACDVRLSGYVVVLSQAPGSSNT
Description: as §1, §2

N[C@@H](Cc1ccc(OP(=O)(O)O)cc1)C(=O)O [Phosphotyrosine, phosphotyrosine]
delta Tm (V374M LNK SH2 domain; replicate 1): 3.1 °C | delta Tm (V374M LNK SH2 domain; replicate 2): 3.2 °C | delta Tm (V374M LNK SH2 domain; replicate 3): 3.3 °C | delta Tm (V374M LNK SH2 domain; replicate 4): 3.2 °C | delta Tm (V374M LNK SH2 domain; replicate 5): 3.4 °C | Tm, plus phosphotyrosine (V374M LNK SH2 domain; replicate 1): 55 °C | Tm, plus phosphotyrosine (V374M LNK SH2 domain; replicate 2): 55.1 °C | Tm, plus phosphotyrosine (V374M LNK SH2 domain; replicate 3): 55.2 °C | Tm, plus phosphotyrosine (V374M LNK SH2 domain; replicate 4): 55.2 °C | Tm, plus phosphotyrosine (V374M LNK SH2 domain; replicate 5): 55.2 °C | delta Tm (R387C LNK SH2 domain; replicate 1): 5.7 °C | delta Tm (R387C LNK SH2 domain; replicate 2): 6.5 °C | delta Tm (R387C LNK SH2 domain; replicate 3): 6.1 °C | delta Tm (R387C LNK SH2 domain; replicate 4): 6.2 °C | delta Tm (R387C LNK SH2 domain; replicate 5): 6.4 °C | Tm, plus phosphotyrosine (R387C LNK SH2 domain; replicate 1): 56.8 °C | Tm, plus phosphotyrosine (R387C LNK SH2 domain; replicate 2): 57.5 °C | Tm, plus phosphotyrosine (R387C LNK SH2 domain; replicate 3): 57.1 °C | Tm, plus phosphotyrosine (R387C LNK SH2 domain; replicate 4): 57.2 °C | Tm, plus phosphotyrosine (R387C LNK SH2 domain; replicate 5): 57.6 °C | delta Tm (R387H LNK SH2 domain; replicate 1): 3.9 °C | delta Tm (R387H LNK SH2 domain; replicate 2): 3.9 °C | delta Tm (R387H LNK SH2 domain; replicate 3): 3.6 °C | delta Tm (R387H LNK SH2 domain; replicate 4): 3.4 °C | delta Tm (R387H LNK SH2 domain; replicate 5): 3.5 °C | Tm, plus phosphotyrosine (R387H LNK SH2 domain; replicate 1): 55.2 °C | Tm, plus phosphotyrosine (R387H LNK SH2 domain; replicate 2): 55.2 °C | Tm, plus phosphotyrosine (R387H LNK SH2 domain; replicate 3): 54.8 °C | Tm, plus phosphotyrosine (R387H LNK SH2 domain; replicate 4): 54.9 °C | Tm, plus phosphotyrosine (R387H LNK SH2 domain; replicate 5): 55 °C | delta Tm (WT LNK SH2 domain; replicate 1): 6.6 °C | delta Tm (WT LNK SH2 domain; replicate 2): 8.1 °C | delta Tm (WT LNK SH2 domain; replicate 3): 7.6 °C | delta Tm (WT LNK SH2 domain; replicate 4): 8.1 °C | Tm, plus phosphotyrosine (WT LNK SH2 domain; replicate 1): 61.1 °C | Tm, plus phosphotyrosine (WT LNK SH2 domain; replicate 2): 61.7 °C | Tm, plus phosphotyrosine (WT LNK SH2 domain; replicate 3): 61.9 °C | Tm, plus phosphotyrosine (WT LNK SH2 domain; replicate 4): 62.5 °C

O=P(O)(O)Oc1ccccc1 [Phenyl Phos, phenyl phosphate]
Tm (V374M LNK SH2 domain; replicate 1): 54.0 °C | Tm (V374M LNK SH2 domain; replicate 2): 54.3 °C | Tm (V374M LNK SH2 domain; replicate 3): 54.7 °C | Tm (R387C LNK SH2 domain; replicate 1): 56.6 °C | Tm (R387C LNK SH2 domain; replicate 2): 54.9 °C | Tm (R387C LNK SH2 domain; replicate 3): 54.8 °C | Tm (R387H LNK SH2 domain; replicate 1): 55.7 °C | Tm (R387H LNK SH2 domain; replicate 2): 56.0 °C | Tm (R387H LNK SH2 domain; replicate 3): 56.2 °C | Tm (WT LNK SH2 domain; replicate 1): 60.6 °C | Tm (WT LNK SH2 domain; replicate 2): 61.6 °C | Tm (WT LNK SH2 domain; replicate 3): 60.8 °C
